A value given as a limit tells only on which side of the number the result lay.

Test [1] deals with immobilized gamma globulin (IgG-2). The test is described as follows: Adsorption and desorption of ovine PRPC peptides on immobilized IgG-2 column, ELISA titer. In kind it is binding. To be noted: for Titer in pool: starting material, ELISA with mono-specific anti peptide antibody; for Desorbs (pH 5.0): titer in material eluted in pH 5.0 buffer; for Not adsorbed: titer in material not adsorbed on immobilized IgG-2 column at neutral pH. The procedure: The ovine PRPC purified as described earlier was applied on immobilized IgG-2 column at neutral pH and eluted in pH 5.0 buffer. The starting materials not adsorbed and eluted materials were tested for the presence of selected peptides by an ELISA method, using mono-specific anti peptide antibody.
Changing the pH 7.0 of the IgG column by the elution buffer of pH 5.0 releases the peptides from the immobilized gamma globulin. Since the interaction between gamma globulin and peptide is not specific, the adsorption and desorption of the peptides from PRPC confirm theory concerning storage facility No II. Furthermore, the finding supports the hypothesis that binding the triplets to macromolecule represents the new mechanism used by host to transport triplets to new cells.
On the technique in general: An ELISA detects its analyte on a solid surface through an enzyme-linked reagent.

Another test has as its system rabbits. Briefly: Immunization of rabbits with peptide antigens, antibody titer in sera. The format is in vivo, rabbit. To be noted: for Post immunization titers: estimated titer of the antibodies in sera from the immunized rabbits; for Before immunization: titer of the antibodies in rabbit sera before immunization. The source says:
The basic problem in preparation antibody for triplets and PRPC peptides is the size of antigen use for immunization purposes. Triplets by definition are made from three amino acids. Under normal condition such peptides are too small to induce the antibody production. The monospecific antibodies, however, can be made by presenting the antigen in the form of a single amino acid as an annealed antigen. The annealed antigen can be made from the same amino acid. In other approach it is possible to increase the size of antigen by repeating the same motif several times. Formation of the annealing polymer will overcome the difficulties connected with the antigen (peptide) for antibody production.
In order to make annealing it is necessary sometimes, to add to peptide empty (not active immunological) amino acids. The strategy used for production antibodies included both variants and addition of the complete Freund adjuvant. The mono-specific antibodies against various ovine PRPC antigens were prepared on rabbits. The larger animals like sheep, goat, or horse may also be utilized. Two rabbits were selected for each natural antigen.

Test [2] is described as follows: Scavenger activity in Spin trap Electromagnetic resonance. The format is biochemical. To be noted: for Scavenger Activity: Spin trap Electromagnetic resonance. How it is done:
(§1) The studies leading to discovery the mechanism protecting signals was already described earlier and is repeated here in Table 11. Amino acids QT, V, and DG may serve as an example of PRP protector present in CN V. The identified peptides were synthesized by BIO-[…] Inc. Lewisville Tex. USA. Peptides were purified in to 99% of purity their amino acid sequences were confirmed. The scavengers activity ware tested in Spin trap Electromagnetic resonance and their effect on the amyloid formation was tested on adult Lewis rats exposed to induced hypoxia. […] If small structural changes in carrier peptides lead to activation their biological activity, similar changes may suppress activity or even terminate the signal. This important property is called feed back signal. Similar type of signals ought to operate within PRPC III and PRPC IV network or are coded in CN V. In Table 12 are listed peptides that may be considered as terminating signals.

For a further test, the system named is amyloid formation. Briefly: Amyloid formation in adult Lewis rats exposed to induced hypoxia. In kind it is in vivo. The following applies: grades 0 to +++++, key not given. The procedure: as §1

AFLLYQEPVLGPV [D-1, ID NO.: 40]: in test [1], the Titer in pool was 9300, the “Desorbs (pH 5.0)” value was determined as 6400 and the Not adsorbed is recorded as 200.

For the substance AFLLYQEPVLGPV [SEQ. ID. NO.: 40], in the test with rabbits, the Post immunization titers is on record as >25,000 and the Before immunization was 0.

Take “DLEMPVLPVEPFPFV (Ovis aries) [SEQ. ID. NO.: 16]”: in the test with rabbits, the Post immunization titers is >25,000 and the Before immunization was 0.

For the substance DPPPPQS (Ovis aries) [SEQ. ID. NO.: 6], in the test on rabbits, the Post immunization titers is given as 6,400 and the Before immunization came to 0.

“DQPPDVEKPDLQPFQVQS (Ovis aries) [B-9, ID NO.: 19]”: in test [1], the Titer in pool is 2075, the “Desorbs (pH 5.0)” value is recorded as above 25600 and the Not adsorbed is listed as 0.

Consider “DQPPDVEKPDLQPFQVQS (Ovis aries) [SEQ. ID. NO.: 19]”, for which, in the test on rabbits, the Post immunization titers is >25,000 and the Before immunization is on record as 0.

Turning to DSQPPV (Ovis aries) [SEQ. ID. NO.: 14], in the test with rabbits, the Post immunization titers is recorded as >25,000 and the Before immunization came to 0.

As to EMPFPKY (Ovis aries) [SEQ. ID. NO.: 21], in the test on rabbits, the Post immunization titers is recorded as >25,000 and the Before immunization was 0.

As to FPPPK (Ovis aries) [SEQ. ID. NO.: 15], in the test with rabbits, the Post immunization titers is recorded as >25,000 and the Before immunization was determined as 0.

In the case of HKEMPFPKYPVEPFTESQ [SEQ. ID NO.: 28], the “Free radical scavenger property (in words)” value in test [2] was “powerful free radicals scavengers”.

Turning to “LFFFLPVVNVLP (Ovis aries) [SEQ. ID. NO.: 17]”, in the test on rabbits, the Post immunization titers was >25,000 and the Before immunization stood at 0.

With “LKPFPKLKVEVFPFP (Ovis aries) [SEQ. ID. NO.: 4]”, in the test with rabbits, the Post immunization titers is recorded as >25,600 and the Before immunization was determined as 0.

Regarding LPPNVG (Ovis aries) [SEQ. ID. NO.: 12], in the test on rabbits, the Post immunization titers was >25,000 and the Before immunization is 0.

As to “LQTPQPLLQVMMEPQGD (Ovis aries) [SEQ. ID. NO.: 1]”, in the test with amyloid formation, the “Inhibit Amyloid Formation” value is recorded as 0. In addition, in the test with rabbits, the Post immunization titers is recorded as 12,800 and the Before immunization stood at 0. Further, the “Scavenger Activity” value in test [2] turned out to be 11%. Also, in test [1], the Titer in pool worked out at 5400, the “Desorbs (pH 5.0)” value is recorded as 3200 and the Not adsorbed is listed as 800.

Take “LSQPKVLPVPQKAVPKPDMPIQ [C-11, ID NO.: 34]”: in test [1], the Titer in pool was 15400, the “Desorbs (pH 5.0)” value is recorded as above 25600 and the Not adsorbed came to 400.

As to “LSQPKVLPVPQKAVPKPDMPIQ [SEQ. ID NO.: 34]”, in test [2], the “Free radical scavenger property (in words)” value is recorded as “powerful free radicals scavengers”.

In the case of “LVYPFTGPIPNSLPQNILP (Ovis aries) [SEQ. ID. NO.: 20]”, in the test on rabbits, the Post immunization titers is recorded as >25,000 and the Before immunization turned out to be 0.

Turning to “MPQNFYKLPQM (Ovis aries) [SEQ. ID. NO.: 2]”, in the test with rabbits, the Post immunization titers is listed as >25,600 and the Before immunization is on record as 0.

As for MQPPPLP (Ovis aries) [B-8, ID NO.: 18], in test [1], the Titer in pool was 9000, the “Desorbs (pH 5.0)” value amounted to 12800 and the Not adsorbed is recorded as 400.

With MQPPPLP (Ovis aries) [SEQ. ID. NO.: 18], in the test on rabbits, the Post immunization titers is reported as >25,000 and the Before immunization worked out at 0.

Turning to “QPLLQVMMEPQ (Ovis aries) [SEQ. ID NO.: 10]”, the “Scavenger Activity” value in test [2] was 75%.

RGPTPILV: in test [2], the “Free radical scavenger property (in words)” value is listed as “powerful scavenger property”.

With SEEMP (Ovis aries) [SEQ. ID. NO.: 13], in the test with rabbits, the Post immunization titers was >25,000 and the Before immunization turned out to be 0.

With SEQP (Ovis aries) [SEQ. ID. NO.: 5], in the test on rabbits, the Post immunization titers was >25,600 and the Before immunization is 0.

SPSLPQNIL [C-2, ID NO.: 25]: in test [1], the Titer in pool came out at 5325, the “Desorbs (pH 5.0)” value was 12800 and the Not adsorbed is 0.

On to SPSLPQNIL [SEQ. ID NO.: 25], for which the “Free radical scavenger property (in words)” value in test [2] is reported as “powerful free radicals scavengers”.

Turning to “VLEMKFPPPPQETVT (Ovis aries) [A-3, ID NO.: 3]”, in test [1], the Titer in pool worked out at 1350, the “Desorbs (pH 5.0)” value came out at 6400 and the Not adsorbed was determined as 400.

With “VLEMKFPPPPQETVT (Ovis aries) [SEQ. ID. NO.: 3]”, in the test on rabbits, the Post immunization titers is on record as 12,800 and the Before immunization came to 0.

As for VYPFPGPIN [SEQ. ID NO.: 24], the “Free radical scavenger property (in words)” value in test [2] was “powerful free radicals scavengers”.

Source of the values: US20100173827A1, “ROLE OF PROLINE RICH PEPTIDES IN CELLULAR COMMUNICATION MECHANISMS AND TREATMENT OF DISEASES” (priority 2008, published 2010).
